Where a SMILES comes first, the peptide text is derived from it. Bridges are numbered along the chain shown (N, C = ends). Where no end group is shown, it is not given here. [ ]: non-standard residue; d: D form. SeMet = C[Se]CC[C@H](N)C(=O)O
Experiments:
human PAC1 receptor = molecular target: T1, human PAC1 receptor (Homo sapiens, UniProt P41586); assay: LANCE Ultra cAMP accumulation antagonist assay in SHSY-5Y cells; type: cell-based;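 also: inhibition of cAMP accumulation evoked by PAC1 agonist at its EC80 in SHSY-5Y cells endogenously expressing receptor, 30 min preincubation then 15 min agonist, TR-FRET readout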
T1 construct: SHSY-5Y (human neuroblastoma cell line) and RG-2 (rat glioma cell line) cells endogenously express human and rat PAC1 receptors, respectively; endogenous in cells; host or cells: SHSY-5Y human neuroblastoma cells
T1 sequence (P41586 21-468): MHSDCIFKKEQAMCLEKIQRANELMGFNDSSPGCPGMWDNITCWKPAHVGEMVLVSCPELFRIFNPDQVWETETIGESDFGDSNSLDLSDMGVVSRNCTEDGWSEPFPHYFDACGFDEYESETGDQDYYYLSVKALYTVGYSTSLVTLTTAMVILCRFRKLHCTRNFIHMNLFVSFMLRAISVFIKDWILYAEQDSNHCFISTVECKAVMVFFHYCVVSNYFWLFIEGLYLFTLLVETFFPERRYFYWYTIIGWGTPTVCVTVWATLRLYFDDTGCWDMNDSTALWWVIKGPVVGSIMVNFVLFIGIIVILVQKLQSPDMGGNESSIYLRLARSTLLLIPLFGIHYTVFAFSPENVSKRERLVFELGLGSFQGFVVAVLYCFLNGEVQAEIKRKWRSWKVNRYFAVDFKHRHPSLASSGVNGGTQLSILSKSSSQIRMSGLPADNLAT

rat PAC1 receptor = molecular target: T2, rat PAC1 receptor (Rattus norvegicus, UniProt P32215); assay: LANCE Ultra cAMP accumulation antagonist assay in RG-2 cells; type: cell-based;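 also: RG-2 rat glioma cells endogenously expressing PAC1, test peptide preincubated 30 min, then PAC1 agonist added at its EC80 for 15 min, cAMP accumulation read by LANCE Ultra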
T2 construct: SHSY-5Y (human neuroblastoma cell line) and RG-2 (rat glioma cell line) cells endogenously express human and rat PAC1 receptors, respectively; endogenous in cells; host or cells: RG-2 rat glioma cells
T2 sequence (P32215 20-523): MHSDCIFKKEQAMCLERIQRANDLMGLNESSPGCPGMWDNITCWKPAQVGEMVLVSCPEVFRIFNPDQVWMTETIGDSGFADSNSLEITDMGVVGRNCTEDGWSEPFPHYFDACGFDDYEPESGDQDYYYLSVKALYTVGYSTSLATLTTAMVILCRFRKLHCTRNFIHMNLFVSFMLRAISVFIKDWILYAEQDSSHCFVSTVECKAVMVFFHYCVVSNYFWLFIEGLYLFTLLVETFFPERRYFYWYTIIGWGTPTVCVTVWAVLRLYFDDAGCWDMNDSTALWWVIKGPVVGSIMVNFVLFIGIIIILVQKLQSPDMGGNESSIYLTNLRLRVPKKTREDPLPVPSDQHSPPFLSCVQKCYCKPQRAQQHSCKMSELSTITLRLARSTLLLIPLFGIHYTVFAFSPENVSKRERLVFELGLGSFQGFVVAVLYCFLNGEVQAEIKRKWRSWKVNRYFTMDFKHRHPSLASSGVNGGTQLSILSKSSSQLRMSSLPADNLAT
Procedure: In order to determine the potency of peptide antagonists at the PAC1 receptor, functional cAMP accumulation assays using LANCE Ultra cAMP assay kit to measure the agonist and antagonist activity of PAC1 peptides were used. SHSY-5Y (human neuroblastoma cell line) and RG-2 (rat glioma cell line) cells endogenously express human and rat PAC1 receptors, respectively. Agonist activity of PAC1 peptides was tested by incubating with SHSY-5Y at 2,000 cells per well or RG-2 at 5,000 cells per well for 15 minutes at room temperature. PAC1 receptor agonist PACAP38 or maxadilan was included as a positive control. The reaction was stopped by adding detection mixture, europium (Eu) chelate-labeled cAMP tracer and cAMP-specific monoclonal antibodies labeled with the ULight™ dye, to all wells followed by a 60-minute incubation at room temperature. The assay plates were then read on an EnVision instrument at an emission wavelength of 665 and 615 nm and data were analyzed using Genedata Screener or GraphPad Prism software. A similar procedure was used in the antagonist assays by using a fixed concentration of PAC1 agonist. The concentrations of agonists were chosen based on their ECK) values at PAC1 receptors in SHSY-5Y or RG-2 cells. SHSY-5Y or RG-2 cells were added into 96-well half-area white plates. Serially diluted PAC1 peptides at ten concentrations were added and incubated for 30 minutes at room temperature. PAC1 agonist at EC80 concentration was then added and further incubated for 15 minutes at room temperature. The reaction was stopped by adding detection mixture to all wells followed by a 60-minute incubation at room temperature. The assay plates were read and analyzed the same way as that of agonist assay. Cells, agonists, and PAC1 peptides were prepared in freshly made assay buffer (F-12, 0.5 mM IBMX, 0.1 or 0.4% BSA (pH 7.4)). Detection mixture was made by mixing a 1/50 dilution of the Eu-cAMP tracer stock solution in cAMP Detection Buffer and a 1/150 dilution of the ULight-anti-cAMP stock solution in cAMP Detection Buffer. Europium (Eu) chelate-labeled cAMP tracer, cAMP-specific monoclonal antibodies labeled with the ULight™ dye, BSA, and detection buffer were provided in LANCE Ultra cAMP Kit from PerkinElmer

Compound | IC50 (human PAC1 receptor) [nM] | IC50 (rat PAC1 receptor) [nM]
CC[C@H](C)[C@H](NC(=O)[C@H](C)NC(=O)[C@H](CCCCN)NC(=O)[C@H](CCCNC(=N)N)NC(=O)[C@H](Cc1ccccc1)NC(=O)[C@H](CCC(N)=O)NC(=O)[C@@H]1CSSC[C@H](N)C(=O)N[C@@H](CC(=O)O)C(=O)N[C@@H](C)C(=O)N[C@@H]([C@@H](C)O)C(=O)N1)C(=O)N[C@@H](CC(=O)O)C(=O)N[C@@H](CC(=O)O)C(=O)N[C@H]1CSSC[C@@H](C(=O)N[C@@H](CC[Se]C)C(=O)N[C@@H](CCCCN)C(=O)N[C@@H](CCC(N)=O)C(=O)N[C@@H](CCCCN)C(=O)N[C@@H](CCCCN)C(=O)N[C@@H](CCCCN)C(=O)N[C@@H](CCC(=O)O)C(=O)N[C@@H](Cc2c[nH]c3ccccc23)C(=O)N[C@@H](CCCCN)C(=O)N[C@@H](C)C(=O)NCC(N)=O)NC(=O)[C@H](C)NC(=O)[C@H](CCCCN)NC(=O)[C@H](Cc2ccccc2)NC(=O)[C@H](C(C)C)NC(=O)[C@H](CO)NC(=O)[C@H](CO)NC(=O)[C@H](Cc2c[nH]cn2)NC(=O)[C@H](Cc2ccc(O)cc2)NC(=O)[C@H](C)NC(=O)[C@H](CCC(N)=O)NC(=O)[C@H](CCCNC(=N)N)NC(=O)[C@H](C)NC1=O [compound 6] (H-CDATCQFRKAIDDCARQAYHSSVFKAC[SeMet]KQKKKEWKAG-NH2; disulfide 1-5, 14-27) | 0.01 to 1 | 0.01 to 1
CDATCQFRKAIDDCWKQAHHSNVPGSVFKACMKQKKKEFKAG-NH2 (disulfide 1-5, 14-31) [compound 80] | 0.01 to 1 | < 0.01
CDATCQFRKAIDDCYYRAWHSNVPGSVFKACMKQKKKEFKAG-NH2 (disulfide 1-5, 14-31) [compound 104] | 0.01 to 1 | 0.01 to 1
CC[C@H](C)[C@H](NC(=O)[C@H](C)NC(=O)[C@H](CCCCN)NC(=O)[C@H](CCCNC(=N)N)NC(=O)[C@H](Cc1ccccc1)NC(=O)[C@H](CCC(N)=O)NC(=O)[C@@H]1CSSC[C@H](N)C(=O)N[C@@H](CC(=O)O)C(=O)N[C@@H](C)C(=O)N[C@@H]([C@@H](C)O)C(=O)N1)C(=O)N[C@@H](CC(=O)O)C(=O)N[C@@H](CC(=O)O)C(=O)N[C@H]1CSSC[C@@H](C(=O)N[C@@H](CCSC)C(=O)N[C@@H](CCCCN)C(=O)N[C@@H](CCC(N)=O)C(=O)N[C@@H](CCCCN)C(=O)N[C@@H](CCCCN)C(=O)N[C@@H](CCCCN)C(=O)N[C@@H](CCC(=O)O)C(=O)N[C@@H](Cc2ccccc2)C(=O)N[C@@H](CCCCN)C(N)=O)NC(=O)[C@H](CCC(=O)O)NC(=O)[C@H](CCCCN)NC(=O)[C@H](Cc2ccccc2)NC(=O)[C@H](C(C)C)NC(=O)[C@H](CO)NC(=O)[C@H](CO)NC(=O)[C@H](Cc2c[nH]cn2)NC(=O)[C@H](Cc2c[nH]cn2)NC(=O)[C@H](C)NC(=O)[C@H](CCC(N)=O)NC(=O)[C@H](CCCCN)NC(=O)[C@H](CC(=O)O)NC1=O [compound 223] | < 0.01 | 1 to 100
CDATCQFRKAIDDCYKQAHHSNVPGSVFKACMKQKKKEFKAGH (disulfide 1-5, 14-31) [compound 47] | 0.01 to 1 | 0.01 to 1
CDATCQFRKAIDDCQKQAHHSNVPGSVFKACLKQKKKEFKAG-NH2 (disulfide 1-5, 14-31) [compound 143] | 0.01 to 1 | 0.01 to 1
CC[C@H](C)[C@H](NC(=O)[C@H](C)NC(=O)[C@H](CCCCN)NC(=O)[C@H](CCCNC(=N)N)NC(=O)[C@H](Cc1ccccc1)NC(=O)[C@H](CCC(N)=O)NC(=O)[C@@H]1CSSC[C@H](N)C(=O)N[C@@H](CC(=O)O)C(=O)N[C@@H](C)C(=O)N[C@@H]([C@@H](C)O)C(=O)N1)C(=O)N[C@@H](CC(=O)O)C(=O)N[C@@H](CC(=O)O)C(=O)N[C@H]1CSSC[C@@H](C(=O)N[C@@H](CCSC)C(=O)N[C@@H](CCCCN)C(=O)N[C@@H](CCC(N)=O)C(=O)N[C@@H](CCCCN)C(=O)N[C@@H](CCCCN)C(=O)N[C@@H](CCCCN)C(=O)N[C@@H](CCC(=O)O)C(=O)N[C@@H](Cc2ccccc2)C(=O)N[C@@H](CCCCN)C(=O)N[C@@H](C)C(=O)NCC(=O)N[C@@H](Cc2c[nH]cn2)C(=O)O)NC(=O)[C@H](C)NC(=O)[C@H](CCCCN)NC(=O)[C@H](Cc2ccccc2)NC(=O)[C@H](C(C)C)NC(=O)[C@H](CO)NC(=O)[C@H](CO)NC(=O)[C@H](Cc2c[nH]cn2)NC(=O)[C@H](Cc2c[nH]cn2)NC(=O)[C@H](C)NC(=O)[C@H](CCC(N)=O)NC(=O)[C@H](CCCCN)NC(=O)[C@H](C(C)C)NC1=O [compound 19] (H-CDATCQFRKAIDDCVKQAHHSSVFKACMKQKKKEFKAGH-OH; disulfide 1-5, 14-27) | 1 to 100 | 0.01 to 1
CDATCQFRKAIDDCQKQAHHSNVPGSVFKACMKFRRTLWKAG-NH2 (disulfide 1-5, 14-31) [compound 89] | 1 to 100 | 0.01 to 1
CC[C@H](C)[C@H](NC(=O)[C@H](C)NC(=O)[C@H](CCCCN)NC(=O)[C@H](CCCNC(=N)N)NC(=O)[C@H](Cc1ccccc1)NC(=O)[C@H](CCC(N)=O)NC(=O)[C@@H]1CSSC[C@H](N)C(=O)N[C@@H](CC(=O)O)C(=O)N[C@@H](C)C(=O)N[C@@H]([C@@H](C)O)C(=O)N1)C(=O)N[C@@H](CC(=O)O)C(=O)N[C@@H](CC(=O)O)C(=O)N[C@H]1CSSC[C@@H](C(=O)N[C@@H](CCSC)C(=O)N[C@@H](CCCCN)C(=O)N[C@@H](CCC(N)=O)C(=O)N[C@@H](CCCCN)C(=O)N[C@@H](CCCCN)C(=O)N[C@@H](CCCCN)C(=O)N[C@@H](CCC(=O)O)C(=O)N[C@@H](Cc2ccccc2)C(=O)N[C@@H](CCCCN)C(=O)N[C@@H](C)C(=O)NCC(N)=O)NC(=O)[C@H](C)NC(=O)[C@H](CCCCN)NC(=O)[C@H](Cc2ccccc2)NC(=O)[C@H](CO)NC(=O)[C@H](CO)NC(=O)[C@H](Cc2c[nH]cn2)NC(=O)[C@H](Cc2c[nH]c3ccccc23)NC(=O)[C@H](CO)NC(=O)[C@H](CCCNC(=N)N)NC(=O)[C@H](Cc2ccc(O)cc2)NC(=O)[C@H](Cc2ccc(O)cc2)NC1=O [compound 63] (H-CDATCQFRKAIDDCYYRSWHSSFKACMKQKKKEFKAG-NH2; disulfide 1-5, 14-26) | 0.01 to 1 | 0.01 to 1
CDATCQFRKAIDDCVWKAFHANVPGSVFKACMKQKKKEFKAG-NH2 (disulfide 1-5, 14-31) [compound 118] | 0.01 to 1 | 0.01 to 1
CDATCQFRKAIDDCQKQAHHSNVPGSVFKACMLQKKKEFKAG-NH2 (disulfide 1-5, 14-31) [compound 103] | 1 to 100 | 0.01 to 1
CDATCQFRKAIDDCMLLSWHSNVPGSVFKACMKQKKKEFKAG-NH2 (disulfide 1-5, 14-31) [compound 132] | 0.01 to 1 | < 0.01
CDATCQFRKAIDDCQKQAHHSNVPGSVFKVCMKQKKKEFKAG-NH2 (disulfide 1-5, 14-31) [compound 211] | 1 to 100 | 0.01 to 1
CC[C@H](C)[C@H](NC(=O)[C@H](C)NC(=O)[C@H](CCCCN)NC(=O)[C@H](CCCNC(=N)N)NC(=O)[C@H](Cc1ccccc1)NC(=O)[C@H](CCC(N)=O)NC(=O)[C@@H]1CSSC[C@H](N)C(=O)N[C@@H](CC(=O)O)C(=O)N[C@@H](C)C(=O)N[C@@H]([C@@H](C)O)C(=O)N1)C(=O)N[C@@H](CC(=O)O)C(=O)N[C@@H](CC(=O)O)C(=O)N[C@H]1CSSC[C@@H](C(=O)N[C@@H](CCSC)C(=O)N[C@@H](CCCCN)C(=O)N[C@@H](CCC(N)=O)C(=O)N[C@@H](CCCCN)C(=O)N[C@@H](CCCCN)C(=O)N[C@@H](CCCCN)C(=O)N[C@@H](CCC(=O)O)C(=O)N[C@@H](Cc2ccccc2)C(=O)N[C@@H](CCCCN)C(=O)N[C@@H](C)C(=O)NCC(=O)N[C@@H](Cc2ccc(O)cc2)C(=O)O)NC(=O)[C@H](C)NC(=O)[C@H](CCCCN)NC(=O)[C@H](Cc2ccccc2)NC(=O)[C@H](C(C)C)NC(=O)[C@H](CO)NC(=O)[C@H](CO)NC(=O)[C@H](Cc2c[nH]cn2)NC(=O)[C@H](Cc2c[nH]cn2)NC(=O)[C@H](C)NC(=O)[C@H](CCC(N)=O)NC(=O)[C@H](CCCCN)NC(=O)[C@H](C)NC1=O [compound 29] (H-CDATCQFRKAIDDCAKQAHHSSVFKACMKQKKKEFKAGY-OH; disulfide 1-5, 14-27) | 0.01 to 1 | 0.01 to 1
CDATCQFRKAIDDCWVQAWHSNVPGSVFKACMKQKKKEFKAG-NH2 (disulfide 1-5, 14-31) [compound 134] | 0.01 to 1 | 0.01 to 1
